Measured values published in patent US20260317324A1, “BIFUNCTIONAL COMPOUNDS FOR DEGRADING BRAF VIA UBIQUITIN PROTEOSOME PATHWAY” (Nurix Therapeutics, Inc., priority 2023, published 2026).

Legend:
Format in all cases: cell-based
BRAF V600E = target: T1, BRAF V600E (Homo sapiens, UniProt P15056, V600E); test: BRAF HiBiT degradation assay, C-terminal HiBiT-tagged BRAF V600E A375 cells (clone 1F10), Nano-Glo HiBiT Lytic assay; details: for Dmax: A-375
T1 construct: endogenous C-terminal HiBiT fusion tag on BRAF V600E allele; endogenous in cells; host or cells: A375 clone 1F10 (CRISPR-Cas9 knock-in of the HiBiT tag; parental A375 from ATCC)
T1 sequence (P15056 whole entry V600E, the tested form may be a part): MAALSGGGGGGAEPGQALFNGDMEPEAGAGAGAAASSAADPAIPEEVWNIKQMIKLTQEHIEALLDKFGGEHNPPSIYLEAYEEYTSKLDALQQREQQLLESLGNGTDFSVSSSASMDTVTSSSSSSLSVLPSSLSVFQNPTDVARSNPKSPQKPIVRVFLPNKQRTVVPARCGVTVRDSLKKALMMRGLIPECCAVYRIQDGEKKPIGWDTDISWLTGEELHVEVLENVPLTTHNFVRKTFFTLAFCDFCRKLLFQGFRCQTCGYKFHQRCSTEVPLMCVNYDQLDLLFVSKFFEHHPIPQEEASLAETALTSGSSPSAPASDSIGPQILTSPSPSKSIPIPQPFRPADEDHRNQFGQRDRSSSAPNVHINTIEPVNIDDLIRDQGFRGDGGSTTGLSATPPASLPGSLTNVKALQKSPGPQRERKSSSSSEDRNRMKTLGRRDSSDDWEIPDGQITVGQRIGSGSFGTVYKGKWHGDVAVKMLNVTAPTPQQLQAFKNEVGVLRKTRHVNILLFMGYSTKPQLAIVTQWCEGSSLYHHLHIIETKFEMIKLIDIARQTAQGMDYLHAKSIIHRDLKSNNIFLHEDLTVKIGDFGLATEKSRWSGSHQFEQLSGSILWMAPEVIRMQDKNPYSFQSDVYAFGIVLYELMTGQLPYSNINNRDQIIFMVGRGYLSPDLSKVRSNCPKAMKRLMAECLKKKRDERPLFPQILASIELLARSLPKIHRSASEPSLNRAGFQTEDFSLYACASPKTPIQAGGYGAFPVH
Outline: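 Using CRISPR-engineered A375 cells that carry a C-terminal HiBiT tag on endogenous BRAF V600E, remaining protein was quantified by lytic luminescence relative to DMSO-treated cells, with wildtype A375 as the background control. DC50 denotes the concentration giving 50% degradation.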

BRAF G466V = target: T2, BRAF G466V (Homo sapiens, UniProt P15056, G466V); test: BRAF HiBiT degradation assay, C-terminal HiBiT-tagged BRAF G466V overexpressed in HCT-116 BRAF−/− cells (clone 8), Nano-Glo HiBiT Lytic assay
T2 construct: Horizon Discovery (HCT-116 BRAF−/− cells); host or cells: HCT-116 BRAF−/− cells, clone 8, lentiviral transduction
T2 sequence (P15056 whole entry G466V): as the sequence (P15056 whole entry V600E, the tested form may be a part) above, with G466V, E600V counted along it
Outline: (§1)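 Degradation assay in HCT-116 BRAF−/− cells carrying lentiviral HiBiT-tagged mutant BRAF. The readout is % protein remaining across 1 μM to 0.01 nM compound, and DC50 marks 50% remaining.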

BRAF G469A = target: T3, BRAF G469A (Homo sapiens, UniProt P15056, G469A); test: BRAF HiBiT degradation assay, C-terminal HiBiT-tagged BRAF G469A overexpressed in HCT-116 BRAF−/− cells (clone 34), Nano-Glo HiBiT Lytic assay
T3 construct: Horizon Discovery (HCT-116 BRAF−/− cells); host or cells: HCT-116 BRAF−/− cells, clone 34, lentiviral transduction
T3 sequence (P15056 whole entry G469A): as the sequence (P15056 whole entry V600E, the tested form may be a part) above, with G469A, E600V counted along it
Outline: as §1

BRAF D594G = target: T4, BRAF D594G (Homo sapiens, UniProt P15056, D594G); test: BRAF HiBiT degradation assay, C-terminal HiBiT-tagged BRAF D594G overexpressed in HCT-116 BRAF−/− cells (clone 63), Nano-Glo HiBiT Lytic assay
T4 construct: Horizon Discovery (HCT-116 BRAF−/− cells); host or cells: HCT-116 BRAF−/− cells, clone 63, lentiviral transduction
T4 sequence (P15056 whole entry D594G): as the sequence (P15056 whole entry V600E, the tested form may be a part) above, with D594G, E600V counted along it
Outline: as §1

[1] = A375 (BRAF V600E), DC50 at 50%: fitted conc. at Y=50
[2] = A375 (BRAF V600E), percentage protein degraded at maximal compound effect relative to DMSO
[3] = BRAF G466V, DC50 at 50%: fitted conc. at Y=50
[4] = HCT-116, BRAF G466V, percentage protein degraded at maximal compound effect relative to DMSO
[5] = Class 2, BRAF G469A, DC50 at 50%: fitted conc. at Y=50
[6] = HCT-116, Class 2, BRAF G469A, percentage protein degraded at maximal compound effect relative to DMSO
[7] = BRAF D594G, DC50 at 50%: fitted conc. at Y=50
[8] = HCT-116, BRAF D594G, percentage protein degraded at maximal compound effect relative to DMSO
[9] = A375 (BRAF V600E, Class 1), DC50 at 50% degradation
[10] = A375 (BRAF V600E, Class 1), observed Dmax, % protein degraded relative to DMSO control
[11] = BRAF G466V (Class 3), HCT-116 BRAF−/− cells, DC50 at 50% degradation
[12] = BRAF G466V (Class 3), HCT-116 BRAF−/− cells, observed Dmax relative to DMSO control
[13] = BRAF G469A (Class 2), HCT-116 BRAF−/− cells, DC50 at 50% degradation
[14] = BRAF G469A (Class 2), HCT-116 BRAF−/− cells, observed Dmax relative to DMSO control
[15] = BRAF D594G (Class 3), HCT-116 BRAF−/− cells, DC50 at 50% degradation
[16] = BRAF D594G (Class 3), HCT-116 BRAF−/− cells, observed Dmax relative to DMSO control

CCCS(=O)(=O)Nc1cccc(-c2nc(-c3ccc(C4CCN(CC5CCN(c6ccc([C@@H]7CCC(=O)NC7=O)cc6)CC5)CC4)cc3)sc2-c2ccnc(N)n2)c1F [Compound 192, N-{3-[5-(2-aminopyrimidin-4-yl)-2-(4-{1-[(1-{4-[(3S)-2,6-dioxopiperidin-3-yl]phenyl}piperidin-4-yl)methyl]piperidin-4-yl}phenyl)-1,3-thiazol-4-yl]-2-fluorophenyl}propane-1-sulfonamide]
DC50 (BRAF V600E; [1]): 10 to 50 nM
Dmax (BRAF V600E; [2]): > 70%
DC50 (BRAF G466V; [3]): > 500 nM
Dmax (BRAF G466V; [4]): 30 to 70%
DC50 (BRAF G469A; [5]): > 500 nM
Dmax (BRAF G469A; [6]): < 30%
DC50 (BRAF D594G; [7]): > 500 nM
Dmax (BRAF D594G; [8]): 30 to 70%

CCCS(=O)(=O)Nc1cccc(-c2nc(C3CCN(C(=O)C4CCN(CC5CCN(c6ccc([C@H]7CCC(=O)NC7=O)cc6)CC5)CC4)CC3)sc2-c2ccnc(NC)n2)c1F [Compound 204, N-{3-[2-(1-{1-[(1-{4-[(3R)-2,6-dioxopiperidin-3-yl]phenyl}piperidin-4-yl)methyl]piperidine-4-carbonyl}piperidin-4-yl)-5-[2-(methylamino)pyrimidin-4-yl]-1,3-thiazol-4-yl]-2-fluorophenyl}propane-1-sulfonamide]
DC50 (BRAF V600E; [1]): < 10 nM
Dmax (BRAF V600E; [2]): > 70%
DC50 (BRAF G466V; [3]): > 500 nM
Dmax (BRAF G466V; [4]): 30 to 70%
DC50 (BRAF G469A; [5]): > 500 nM
Dmax (BRAF G469A; [6]): 30 to 70%
DC50 (BRAF D594G; [7]): > 500 nM
Dmax (BRAF D594G; [8]): 30 to 70%

O=C1CCN(c2ccc(N3CCC(CN4CCN(c5ccc(-n6cc(-c7cc(Cl)cc(NS(=O)(=O)N8CC[C@@H](F)C8)c7F)c(-c7ccncc7)n6)cc5)CC4)CC3)nc2)C(=O)N1 [Compound 263, (R)—N-(5-chloro-3-(1-(4-(4-((1-(5-(2,4-dioxotetrahydropyrimidin-1(2H)-yl)pyridin-2-yl)piperidin-4-yl)methyl)piperazin-1-yl)phenyl)-3-(pyridin-4-yl)-1H-pyrazol-4-yl)-2-fluorophenyl)-3-fluoropyrrolidine-1-sulfonamide]
DC50 (BRAF V600E; [9]): < 10 nM
Dmax (BRAF V600E; [10]): > 70%
DC50 (BRAF G466V; [11]): < 10 nM
Dmax (BRAF G466V; [12]): > 70%
DC50 (BRAF G469A; [13]): < 10 nM
Dmax (BRAF G469A; [14]): 30 to 70%
DC50 (BRAF D594G; [15]): < 10 nM
Dmax (BRAF D594G; [16]): 30 to 70%

O=C1CC[C@H](c2ccc(N3CCC(CN4CCN(c5ccc(-n6cc(-c7cc(Cl)cc(NS(=O)(=O)N8CC[C@@H](F)C8)c7F)c(-c7ccncc7)n6)cc5)CC4)CC3)nc2)C(=O)N1 [Compound 264, (R)—N-(5-chloro-3-(1-(4-(4-((1-(5-((R)-2,6-dioxopiperidin-3-yl)pyridin-2-yl)piperidin-4-yl)methyl)piperazin-1-yl)phenyl)-3-(pyridin-4-yl)-1H-pyrazol-4-yl)-2-fluorophenyl)-3-fluoropyrrolidine-1-sulfonamide]
DC50 (BRAF V600E; [9]): < 10 nM
Dmax (BRAF V600E; [10]): > 70%
DC50 (BRAF G466V; [11]): < 10 nM
Dmax (BRAF G466V; [12]): > 70%
DC50 (BRAF G469A; [13]): < 10 nM
Dmax (BRAF G469A; [14]): > 70%
DC50 (BRAF D594G; [15]): < 10 nM
Dmax (BRAF D594G; [16]): > 70%

CCCS(=O)(=O)Nc1cc(Cl)cc(-c2cn(-c3ccc(N4CCN(CC5CCN(c6ccc([C@H]7CCC(=O)NC7=O)cc6)CC5)[C@H](C)C4)cc3)nc2-c2ccncc2)c1F [Compound 275, N-[5-chloro-3-(1-{4-[(3R)-4-[(1-{4-[(3R)-2,6-dioxopiperidin-3-yl]phenyl}piperidin-4-yl)methyl]-3-methylpiperazin-1-yl]phenyl}-3-(pyridin-4-yl)-1H-pyrazol-4-yl)-2-fluorophenyl]propane-1-sulfonamide]
DC50 (BRAF V600E; [9]): < 10 nM
Dmax (BRAF V600E; [10]): > 70%
DC50 (BRAF G466V; [11]): < 10 nM
Dmax (BRAF G466V; [12]): > 70%
DC50 (BRAF G469A; [13]): 10 to 50 nM
Dmax (BRAF G469A; [14]): 30 to 70%
DC50 (BRAF D594G; [15]): < 10 nM
Dmax (BRAF D594G; [16]): 30 to 70%

CCCS(=O)(=O)Nc1cc(Cl)cc(-c2cn(-c3ccc(N4CCN(CC5CCN(c6ccc(N7CCC(=O)NC7=O)cc6)CC5)[C@H](C)C4)cc3)nc2-c2ccncc2)c1F [Compound 277, N-[5-chloro-3-(1-{4-[(3R)-4-({1-[4-(2,4-dioxo-1,3-diazinan-1-yl)phenyl]piperidin-4-yl}methyl)-3-methylpiperazin-1-yl]phenyl}-3-(pyridin-4-yl)-1H-pyrazol-4-yl)-2-fluorophenyl]propane-1-sulfonamide]
DC50 (BRAF V600E; [9]): < 10 nM
Dmax (BRAF V600E; [10]): > 70%
DC50 (BRAF G466V; [11]): < 10 nM
Dmax (BRAF G466V; [12]): > 70%
DC50 (BRAF G469A; [13]): 10 to 50 nM
Dmax (BRAF G469A; [14]): 30 to 70%
DC50 (BRAF D594G; [15]): 50 to 500 nM
Dmax (BRAF D594G; [16]): 30 to 70%

CCCS(=O)(=O)Nc1cc(Cl)cc(-c2cn(-c3ccc(N4CCN(CC5CCN(c6ccc([C@H]7CCC(=O)NC7=O)cc6)CC5)[C@@H](C)C4)cc3)nc2-c2ccncc2)c1F [Compound 278, N-[5-chloro-3-(1-{4-[(3S)-4-[(1-{4-[(3R)-2,6-dioxopiperidin-3-yl]phenyl}piperidin-4-yl)methyl]-3-methylpiperazin-1-yl]phenyl}-3-(pyridin-4-yl)-1H-pyrazol-4-yl)-2-fluorophenyl]propane-1-sulfonamide]
DC50 (BRAF V600E; [9]): < 10 nM
Dmax (BRAF V600E; [10]): > 70%
DC50 (BRAF G466V; [11]): < 10 nM
Dmax (BRAF G466V; [12]): > 70%
DC50 (BRAF G469A; [13]): > 500 nM
Dmax (BRAF G469A; [14]): 30 to 70%
DC50 (BRAF D594G; [15]): 50 to 500 nM
Dmax (BRAF D594G; [16]): 30 to 70%

CCCS(=O)(=O)Nc1cc(Cl)cc(-c2cn(-c3ccc(N4CCN(CC5CCN(c6ccc(N7CCC(=O)NC7=O)cc6)CC5)[C@@H](C)C4)cc3)nc2-c2ccncc2)c1F [Compound 280, N-[5-chloro-3-(1-{4-[(3S)-4-({1-[4-(2,4-dioxo-1,3-diazinan-1-yl)phenyl]piperidin-4-yl}methyl)-3-methylpiperazin-1-yl]phenyl}-3-(pyridin-4-yl)-1H-pyrazol-4-yl)-2-fluorophenyl]propane-1-sulfonamide]
DC50 (BRAF V600E; [9]): 10 to 50 nM
Dmax (BRAF V600E; [10]): > 70%
DC50 (BRAF G466V; [11]): > 500 nM
Dmax (BRAF G466V; [12]): 30 to 70%
DC50 (BRAF G469A; [13]): > 500 nM
Dmax (BRAF G469A; [14]): < 30%
DC50 (BRAF D594G; [15]): > 500 nM
Dmax (BRAF D594G; [16]): < 30%

O=C1CC[C@H](c2ccc(N3CCC(CN4CCN(c5ccc(-n6cc(-c7cc(Cl)cc(NS(=O)(=O)N8CCCC8)c7F)c(-c7ccncc7)n6)c(F)c5)CC4)CC3)cc2)C(=O)N1 [Compound 281, N-{5-chloro-3-[1-(4-{4-[(1-{4-[(3R)-2,6-dioxopiperidin-3-yl]phenyl}piperidin-4-yl)methyl]piperazin-1-yl}-2-fluorophenyl)-3-(pyridin-4-yl)-1H-pyrazol-4-yl]-2-fluorophenyl}pyrrolidine-1-sulfonamide]
DC50 (BRAF V600E; [9]): < 10 nM
Dmax (BRAF V600E; [10]): > 70%
DC50 (BRAF G466V; [11]): < 10 nM
Dmax (BRAF G466V; [12]): > 70%
DC50 (BRAF G469A; [13]): 10 to 50 nM
Dmax (BRAF G469A; [14]): 30 to 70%
DC50 (BRAF D594G; [15]): < 10 nM
Dmax (BRAF D594G; [16]): 30 to 70%

O=C1CC[C@H](c2ccc(N3CCC(CN4CCN(c5ccc(-n6cc(-c7cc(Cl)cc(NS(=O)(=O)N8CCCC8)c7F)c(-c7ccncc7)n6)cc5)CC4)CC3)cc2)C(=O)N1 [Compound 282, N-{5-chloro-3-[1-(4-{4-[(1-{4-[(3R)-2,6-dioxopiperidin-3-yl]phenyl}piperidin-4-yl)methyl]piperazin-1-yl}phenyl)-3-(pyridin-4-yl)-1H-pyrazol-4-yl]-2-fluorophenyl}pyrrolidine-1-sulfonamide]
DC50 (BRAF V600E; [9]): < 10 nM
Dmax (BRAF V600E; [10]): > 70%
DC50 (BRAF G466V; [11]): < 10 nM
Dmax (BRAF G466V; [12]): > 70%
DC50 (BRAF G469A; [13]): < 10 nM
Dmax (BRAF G469A; [14]): 30 to 70%
DC50 (BRAF D594G; [15]): < 10 nM
Dmax (BRAF D594G; [16]): 30 to 70%
